In the oligonucleotide strings, read from the 5' end, every base follows the letter of its sugar. An asterisk marks phosphorothioate; unmarked linkages are phosphodiester. Other units and linkages are bracketed, terminal groups are in braces. A string of capitals states the bases alone. d = 2'-deoxy (DNA)
Assays:
[1] = test system: GEO cells; assay: Soft agar growth of GEO cells, antisense MBO in combination with cytotoxic drugs; format: cell-based, human; conditions: for growth inhibition: soft agar; for growth inhibitory effect in combination with cytotoxic drugs: GEO cells on soft agar, all doses, with each of cisplatin, doxorubicin, paclitaxel, topotecan (FIGS. 5, 6)
Method: FIG. 5A is a graphic representation showing the growth inhibitory effects of AS23 (0.01 μM, […], 0.1 μM) in combination with cisplatin on the growth of CEO cells in soft agar. Cells were treated with the indicated concentrations of cytotoxic drug on day 1, followed by the indicated concentrations of EGFR-AS oligonucleotide on each day from day 2 to day 4. Colonies were counted after 10 to 14 days. Data represent the average (±standard deviation) of three different experiments, each performed in triplicate.
The invention also provides a method of potentiating the growth inhibitory effect of a cytotoxin on a cancer cell. In this method, the cell is contacted with an oligonucleotide of the invention, as well as the cytotoxin. For example, the growth inhibitory effects of AS23 and AS24 on cancer cells were examined in combination with four different cytotoxins: cisplatin, doxorubicin, paclitaxel, and topotecan. […] When lower doses of these agents were used, the antiproliferative effect was clearly cooperative. […] The cooperativity quotient of this treatment, defined as the ratio between the actual growth inhibition obtained with cisplatin followed by AS23 MBO and the sum of the growth inhibition achieved by each agent, was approximately 1.8.
Cells (10^4 cells/well) were suspended in 0.5 ml of 0.3% Difco Noble agar (Difco, Detroit, Mich.) supplemented with complete culture medium. This suspension was layered over 0.5 ml of 0.8% agar-medium base layer in 24 multiwell cluster dishes (Becton Dickinson, Lincoln Park, N.J.) and treated on days 1, 2 and 3 with different concentrations of the various EGFR-AS oligonucleotides alone and/or in combination on day 1 with the indicated concentrations of cytotoxic drugs. After 10 to 14 days, cells were stained with nitro blue tetrazolium (Sigma, St. Louis, Mo.) and colonies larger than 0.05 mm were counted.

[2] = test system: human GEO colon cancer cells; assay: Soft agar (anchorage-independent) colony growth of GEO cells; format: cell-based; conditions: read-out: IC50, inhibition of GEO cell soft agar growth
Method: Antisense oligonucleotides having SEQ ID NOS: 1-10 were designed and evaluated for the ability to inhibit the anchorage-independent growth of human GEO colon cancer cells. Human cancer cells useful for this study are GEO cells.
The IC50 determined by treatment with these antisense oligonucleotides varied between 0.1 and 0.7 μM. Based on the nucleotide sequence and on the growth inhibitory activity, two sequences (corresponding to AS14 (SEQ 10 NO: 14) and AS22 (SEQ ID NO: 22)) were modified in their backbone structure as hybrid DNA-RNA 20-mer oligonucleotides (AS23 (SEQ ID NO: 23)) and AS24 (SEQ ID NO: 24)) and further characterized for their biological characteristics. GEO cells were grown as colonies in soft agar and treated with different concentrations of the indicated antisense oligonucleotides. IC50 values were obtained from three different experiments, each performed in triplicate.
GEO human colon cancer, OVCAR-3 human ovarian cancer, and ZR-75-1 human breast cancer cell lines were obtained from the American Type Culture Collection, Manassas, Va. (OVCAR, ATCC No. HTB-161; ZR-75-1, ATCC No. CRL-1500). […]
Cells (10^4 cells/well) were suspended in 0.5 ml of 0.3% Difco Noble agar (Difco, Detroit, Mich.) supplemented with complete culture medium. […] After 10 to 14 days, cells were stained with nitro blue tetrazolium (Sigma, St. Louis, Mo.) and colonies larger than 0.05 mm were counted.

[3] = test system: p27; assay: Western blot of p27 expression in ZR-75-1 cells; format: cell-based, human; conditions: three days, 0.1 and 0.5 μM (FIG. 3B)
Method: (§1) Equal amounts (50 μg/lane) of protein extracts were resolved by a 12% SDS-PAGE and probed with an anti-human p27 MAb. Immunoreactive proteins were visualized by enhanced chemiluminescence.
(§2) The ability of EGFR antisense treatment to induce p27 was therefore examined.
(§3) 50 μg total cell lysates from GEO cells, which were treated each day for three days with the indicated concentrations of antisense oligonucleotides, were fractionated through 7.5% or 12% sodium dodecyl sulfate-polyacrylamide gels, transferred to nitrocellulose filters and incubated with an anti-human EGFR mouse MAb or with an anti-human p27 mouse MAb (both antibodies were purchased from Transduction Laboratories, Lexington, Ky.), respectively, followed by horseradish-peroxidase antiserum (Bio-Rad Laboratories, Milano, Italy). Immunoreactive proteins were visualized by enhanced chemiluminescence (Amersham International, England).

[4] = test system: p27; assay: Western blot of p27 expression in GEO cells; format: cell-based, human; conditions: three days, 0.1 and 0.5 μM (FIG. 3A)
Method: as §1, §2, §3

[5] = test system: EGFR; assay: Western blot of EGFR expression in GEO cells; format: cell-based, human; conditions: GEO cells treated three days at 0.1 μM or 0.5 μM, compared to scramble oligonucleotide-treated cells (FIG. 1B)
Method: FIG. 1A is a representation of a Western blot showing EGFR expression in GEO cancer cells following treatment with EGFR antisense oligonucleotides. GEO cells were treated for three days with 0.5 μM of the indicated oligonucleotides (AS 5, 6, 7, 8, 9, 10), 0.5 μM, or with 0.5 μM scramble sequence oligonucleotides. Equal amounts (50 μg/lane) of protein extracts were resolved by a 7.5% SDS-PAGE and probed with an anti-human EGFR monoclonal antibody. Immunoreactive proteins were visualized by enhanced chemiluminescence.
FIG. 1B is a representation of a Western blot showing EGFR expression in CEO cells following treatment with EGFR antisense oligonucleotides. GEO cells were treated for three days with AS23 and AS24 oligonucleotides (0.1 or 0.5 μM), respectively; or with 0.5 μM of scramble sequence oligonucleotides. Equal amounts (50 μg/lane) of protein extracts were resolved by a 7.5% SDS-PAGE and probed with an anti-human EGFR monoclonal antibody. Immunoreactive proteins were visualized by enhanced chemiluminescence. […]

Compound | IC50 [2] | EGFR protein expression (Western blot) [5] | growth inhibitory effect in combination with cytotoxic drugs [1] | further results
N.N.[Cl][Pt][Cl] [cisplatin, CIS-diamminedichloroplatinum, reference compound] |  |  |  | growth inhibition ([1]; GEO cells, 0.25 μg/ml cisplatin alone): approximately 20%
ACACTGCCTGAGAGTTGCCC (antisense dA*dC*dA*dC*dT*dG*dC*dC*dT*dG*dA*dG*dA*dG*dT*dT*dG*dC*dC*dC) [AS1] | ~3500 nM |  |  | 
CTCTTCTTGACAGTCTGATG (antisense dC*dT*dC*dT*dT*dC*dT*dT*dG*dA*dC*dA*dG*dT*dC*dT*dG*dA*dT*dG) [AS10] | ~500 nM |  |  | 
UAUGATCTGTCACAGCUUGA (phosphorothioate linkages, 2'-O-methyl ribonucleosides, further chemistry not given here) [AS23] |  | almost complete inhibition | supra-additive growth inhibitory effect | p27 expression (Western blot) [3]: dose-dependent increase in p27 expression; p27 expression (Western blot) [4]: dose-dependent increase in p27 expression; growth inhibition ([1]; GEO cells, 0.05 μM AS23 MBO alone): approximately 20%; inhibition of colony formation in soft agar ([1]; GEO cells, combined treatment 0.25 μg/ml cisplatin followed by 0.05 μM AS23 MBO (FIG. 5A)): 70%; cooperativity quotient ([1]; ratio of growth inhibition with cisplatin followed by AS23 MBO to the sum of growth inhibition by each agent, GEO cells): approximately 1.8
UGCTAGGTTTCCTCCCUUUC (phosphorothioate linkages, 2'-O-methyl ribonucleosides, further chemistry not given here) [AS24] |  | almost complete inhibition | supra-additive growth inhibitory effect | 

Reference: patent publication US7671035B2, “Epidermal growth factor receptor antisense oligonucleotides” (Idera Pharmaceuticals, Inc., priority 2001, dated 2010)
